For data set [1], the target named is SARS-CoV-2 main protease (Mpro) (Severe acute respiratory syndrome coronavirus 2, UniProt P0DTD1). The data set is described as follows: SARS-CoV-2 Mpro FRET enzymatic assay. Format: biochemical.
Data set [2] relates to SARS-CoV-2 (isolate USA WA1/2020). It counts as cell-based. The following applies: read-out: EC50 (antiviral); Calu-3 cells, MOI 0.5, 48 hours.
In the next data set the target is SARS-CoV-2 Mpro (Severe acute respiratory syndrome coronavirus 2, UniProt P0DTD1). The data set is described as follows: Mpro enzyme kinetics, Morrison plot Ki determination. Format: biochemical.

Read-outs that look alike come from different tables or passages of the source.

In data set [1], `COc1ccc(/C=C(\C#N)C(=O)N(c2ccc(-c3ccccc3)cc2)C(C(=O)N[C@@H](C)c2ccccc2)c2cccnc2)cc1` (stereo partly drawn) [Jun10963S, (E)-N-([1,1’-biphenyl]-4-yl)-2-cyano-3-(4-methoxyphenyl)-N-((R)-2-oxo-2-(((S)-1-phenylethyl)amino)-1-(pyridin-3-yl)ethyl)acrylamide] yielded an IC50 of over 20000 nM.

In data set [1], `C#CC(=O)N(c1ccc(-c2ccccc2)cc1)C(C(=O)N[C@@H](C)c1ccccc1)c1cccnc1` (stereo partly drawn) [Jun10221R, N-([1,1’-biphenyl]-4-yl)-N-((S)-2-oxo-2-(((S)-1-phenylethyl)amino)-1-(pyridin-3-yl)ethyl)propiolamide] registered an IC50 of 20 nM. With “N-([1,1’-biphenyl]-4-yl)-2-cyano-N-((S)-2-oxo-2-(((S)-1-phenylethyl)amino)-1-(pyridin-3-yl)ethyl)acetamide [Jun10541R]”, the 50% effective concentration (EC50) in data set [2] was determined as 2920 nM. In addition, the “cytotoxicity to Calu-3 cells” value in the data set on Calu-3 cells is recorded as “not cytotoxic”. The same compound gave an inhibition constant (Ki) on SARS-CoV-2 Mpro (Morrison equation fit, 20 μM FRET substrate, no preincubation) of 345 nM. In data set [1], `C[C@H](NC(=O)C(c1cccnc1)N(C(=O)C#CC(C)(C)C)c1ccc(-c2ccccc2)cc1)c1ccccc1` (stereo partly drawn) [Jun10925, N-([1,1’-biphenyl]-4-yl)-4,4-dimethyl-N-(2-oxo-2-(((S)-1-phenylethyl)amino)-1-(pyridin-3-yl)ethyl)pent-2-ynamide] yielded an IC50 of over 20000 nM. Turning to `COc1ccc(/C=C(\C#N)C(=O)N(c2ccc(-c3ccccc3)cc2)C(C(=O)N[C@@H](C)c2ccccc2)c2cccnc2)cc1` (stereo partly drawn) [Jun10963R, (E)-N-([1,1’-biphenyl]-4-yl)-2-cyano-3-(4-methoxyphenyl)-N-((S)-2-oxo-2-(((S)-1-phenylethyl)amino)-1-(pyridin-3-yl)ethyl)acrylamide], the inhibitory constant (Ki) on SARS-CoV-2 Mpro was found to be 573 nM. The same compound displayed an IC50 in data set [1] of 560 nM.

In data set [1], `CCCC#CC(=O)N(c1ccc(-c2ccccc2)cc1)C(C(=O)N[C@@H](C)c1ccccc1)c1cccnc1` (stereo partly drawn) [Jun10923, N-([1,1’-biphenyl]-4-yl)-N-(2-oxo-2-(((S)-1-phenylethyl)amino)-1-(pyridin-3-yl)ethyl)hex-2-ynamide] yielded a half-maximal inhibitory concentration (IC50) of 2510 nM.

For the origin of these results see article PMC10529912 (European journal of medicinal chemistry, 2023).
